Data from patent publication US11452718B2 (AVALYN PHARMA INC., priority 2012, dated 2022).

Test: Stability assessment of pirfenidone formulations at 25° C./60RH and 40° C./75RH
Format: physicochemical
Conditions: for Measured Pirfenidone / mOsmol/kg / pH: time zero
Method: The sample was agitated until completely dissolved. Once dissolved, samples were filtered via syringe through a 0.22 μm PVDF filter.
Samples were refrigerated to reduce evaporative loss of volatile co-solvents (ethanol) during filtration and dispensing. An approximate 5.0-mL aliquot of each formulation was transferred to class A glass 6 ml containers with suitable closures (20 mm stopper). At least 8 containers are being maintained in the upright orientation at 25° C./60RH, and another 8 containers maintained at 40° C./75RH.

[1] = 25° C./60% RH, 5 mM phosphate buffer pH 6.5 plus 1% (v/v) EtOH, 2% (v/v) PG, target pirfenidone 15 mg/mL
[2] = 25° C./60% RH, 5 mM phosphate buffer pH 6.5 plus 4% (v/v) EtOH, 8% (v/v) PG, target pirfenidone 23 mg/mL
[3] = 25° C./60% RH, 5 mM phosphate buffer pH 6.5 plus 6% (v/v) EtOH, 12% (v/v) PG, target pirfenidone 30 mg/mL
[4] = 25° C./60% RH, 5 mM phosphate buffer pH 6.5 plus 8% (v/v) EtOH, 16% (v/v) PG, target pirfenidone 1 mg/mL
[5] = 25° C./60% RH, 5 mM phosphate buffer pH 6.5 plus 8% (v/v) EtOH, 16% (v/v) PG, target pirfenidone 38 mg/mL
[6] = 40° C./75% RH, 5 mM phosphate buffer pH 6.5 plus 1% (v/v) EtOH, 2% (v/v) PG, target pirfenidone 1 mg/mL
[7] = 40° C./75% RH, 5 mM phosphate buffer pH 6.5 plus 1% (v/v) EtOH, 2% (v/v) PG, target pirfenidone 15 mg/mL
[8] = 40° C./75% RH, 5 mM phosphate buffer pH 6.5 plus 4% (v/v) EtOH, 8% (v/v) PG, target pirfenidone 23 mg/mL
[9] = 40° C./75% RH, 5 mM phosphate buffer pH 6.5 plus 6% (v/v) EtOH, 12% (v/v) PG, target pirfenidone 30 mg/mL
[10] = 40° C./75% RH, 5 mM phosphate buffer pH 6.5 plus 8% (v/v) EtOH, 16% (v/v) PG, target pirfenidone 1 mg/mL
[11] = 40° C./75% RH, 5 mM phosphate buffer pH 6.5 plus 8% (v/v) EtOH, 16% (v/v) PG, target pirfenidone 38 mg/mL
[12] = 5 mM phosphate buffer pH 6.5 plus 1% (v/v) EtOH, 2% (v/v) PG, target pirfenidone 1 mg/mL
[13] = 5 mM phosphate buffer pH 6.5 plus 1% (v/v) EtOH, 2% (v/v) PG, target pirfenidone 15 mg/mL
[14] = 5 mM phosphate buffer pH 6.5 plus 4% (v/v) EtOH, 8% (v/v) PG, target pirfenidone 23 mg/mL
[15] = 5 mM phosphate buffer pH 6.5 plus 6% (v/v) EtOH, 12% (v/v) PG, target pirfenidone 30 mg/mL
[16] = 5 mM phosphate buffer pH 6.5 plus 8% (v/v) EtOH, 16% (v/v) PG, target pirfenidone 1 mg/mL
[17] = 5 mM phosphate buffer pH 6.5 plus 8% (v/v) EtOH, 16% (v/v) PG, target pirfenidone 38 mg/mL

**Q.** For `Cc1ccc(=O)n(-c2ccccc2)c1` [pirfenidone, 5-methyl-1-phenyl-2-(1H)-pyridone], which “Pirfenidone (mg/mL) at Time = 3 month” value [1] is on record?
**A.** The value was 14.9 mg/mL.

**Q.** And the “Pirfenidone (mg/mL) at Time = 6 month” value [1]?
**A.** Its value is 15.4 mg/mL.

**Q.** And the “Pirfenidone (mg/mL) at Time = 0” value [2]?
**A.** The value was 24.1 mg/mL.

**Q.** And the “Pirfenidone (mg/mL) at Time = 1 month” value [2]?
**A.** The value was 22.1 mg/mL.

**Q.** And the “Pirfenidone (mg/mL) at Time = 3 month” value [2]?
**A.** The value was 22.3 mg/mL.

**Q.** What about the “Pirfenidone (mg/mL) at Time = 6 month” value [2] of the same compound?
**A.** Its value is 23.2 mg/mL.

**Q.** And the “Pirfenidone (mg/mL) at Time = 0” value [3]?
**A.** The value was 30.3 mg/mL.

**Q.** What about the “Pirfenidone (mg/mL) at Time = 1 month” value [3] of the same compound?
**A.** The value was 30.1 mg/mL.

**Q.** What about the “Pirfenidone (mg/mL) at Time = 3 month” value [3] of the same compound?
**A.** The value was 29.6 mg/mL.

**Q.** And the “Pirfenidone (mg/mL) at Time = 6 month” value [3]?
**A.** Its value is 31.0 mg/mL.

**Q.** And the “Pirfenidone (mg/mL) at Time = 0” value [4]?
**A.** The value was 1.0 mg/mL.

**Q.** And the “Pirfenidone (mg/mL) at Time = 1 month” value [4]?
**A.** The value was 1.0 mg/mL.

**Q.** What about the “Pirfenidone (mg/mL) at Time = 3 month” value [4] of the same compound?
**A.** Its value is 1.0 mg/mL.

**Q.** And the “Pirfenidone (mg/mL) at Time = 6 month” value [4]?
**A.** Its value is 1.0 mg/mL.

**Q.** And the “Pirfenidone (mg/mL) at Time = 0” value [5]?
**A.** The value was 38.9 mg/mL.

**Q.** What about the “Pirfenidone (mg/mL) at Time = 1 month” value [5] of the same compound?
**A.** Its value is 38.3 mg/mL.

**Q.** And the “Pirfenidone (mg/mL) at Time = 3 month” value [5]?
**A.** Its value is 38.0 mg/mL.

**Q.** And the “Pirfenidone (mg/mL) at Time = 6 month” value [5]?
**A.** The value was 39.2 mg/mL.

**Q.** And the “Pirfenidone (mg/mL) at Time = 0” value [6]?
**A.** The value was 1.0 mg/mL.

**Q.** What about the “Pirfenidone (mg/mL) at Time = 1 month” value [6] of the same compound?
**A.** Its value is 1.0 mg/mL.

**Q.** And the “Pirfenidone (mg/mL) at Time = 3 month” value [6]?
**A.** The value was 1.0 mg/mL.

**Q.** What about the “Pirfenidone (mg/mL) at Time = 6 month” value [6] of the same compound?
**A.** Its value is 1.0 mg/mL.

**Q.** And the “Pirfenidone (mg/mL) at Time = 0” value [7]?
**A.** Its value is 16.1 mg/mL.

**Q.** What about the “Pirfenidone (mg/mL) at Time = 1 month” value [7] of the same compound?
**A.** Its value is 15.1 mg/mL.

**Q.** And the “Pirfenidone (mg/mL) at Time = 3 month” value [7]?
**A.** The value was 14.8 mg/mL.

**Q.** What about the “Pirfenidone (mg/mL) at Time = 6 month” value [7] of the same compound?
**A.** Its value is 15.5 mg/mL.

**Q.** What about the “Pirfenidone (mg/mL) at Time = 0” value [8] of the same compound?
**A.** Its value is 24.1 mg/mL.

**Q.** What about the “Pirfenidone (mg/mL) at Time = 1 month” value [8] of the same compound?
**A.** Its value is 22.4 mg/mL.

**Q.** And the “Pirfenidone (mg/mL) at Time = 3 month” value [8]?
**A.** Its value is 22.1 mg/mL.

**Q.** And the “Pirfenidone (mg/mL) at Time = 6 month” value [8]?
**A.** The value was 23.3 mg/mL.

**Q.** And the “Pirfenidone (mg/mL) at Time = 0” value [9]?
**A.** The value was 30.3 mg/mL.

**Q.** And the “Pirfenidone (mg/mL) at Time = 1 month” value [9]?
**A.** Its value is 30.3 mg/mL.

**Q.** What about the “Pirfenidone (mg/mL) at Time = 3 month” value [9] of the same compound?
**A.** Its value is 30.0 mg/mL.

**Q.** And the “Pirfenidone (mg/mL) at Time = 6 month” value [9]?
**A.** The value was 31.1 mg/mL.

**Q.** And the “Pirfenidone (mg/mL) at Time = 0” value [10]?
**A.** Its value is 1.0 mg/mL.

**Q.** What about the “Pirfenidone (mg/mL) at Time = 1 month” value [10] of the same compound?
**A.** Its value is 1.0 mg/mL.

**Q.** And the “Pirfenidone (mg/mL) at Time = 3 month” value [10]?
**A.** Its value is 1.0 mg/mL.

**Q.** And the “Pirfenidone (mg/mL) at Time = 6 month” value [10]?
**A.** The value was 1.0 mg/mL.

**Q.** And the “Pirfenidone (mg/mL) at Time = 0” value [11]?
**A.** Its value is 38.9 mg/mL.

**Q.** And the “Pirfenidone (mg/mL) at Time = 1 month” value [11]?
**A.** Its value is 38.4 mg/mL.

**Q.** What about the “Pirfenidone (mg/mL) at Time = 3 month” value [11] of the same compound?
**A.** Its value is 38.0 mg/mL.

**Q.** And the “Pirfenidone (mg/mL) at Time = 6 month” value [11]?
**A.** The value was 37.9 mg/mL.

**Q.** And the “Measured Pirfenidone” value [12]?
**A.** The value was 1.0 mg/mL.

**Q.** What about the mOsmol/kg [12] of the same compound?
**A.** The mOsmol/kg was 452 mOsmol/kg.

**Q.** And the pH [12]?
**A.** The pH was 6.69.

**Q.** What about the “Measured Pirfenidone” value [13] of the same compound?
**A.** The value was 16.1 mg/mL.

**Q.** And the mOsmol/kg [13]?
**A.** Its mOsmol/kg is 512 mOsmol/kg.

**Q.** What about the pH [13] of the same compound?
**A.** The pH was 6.65.

**Q.** What about the “Measured Pirfenidone” value [14] of the same compound?
**A.** Its value is 24.1 mg/mL.

**Q.** And the pH [14]?
**A.** Its pH is 6.78.

**Q.** And the “Measured Pirfenidone” value [15]?
**A.** Its value is 30.3 mg/mL.

**Q.** What about the mOsmol/kg [15] of the same compound?
**A.** The mOsmol/kg was 2863 mOsmol/kg.

**Q.** What about the pH [15] of the same compound?
**A.** The pH was 6.90.

**Q.** What about the “Measured Pirfenidone” value [16] of the same compound?
**A.** The value was 1.0 mg/mL.

**Q.** And the mOsmol/kg [16]?
**A.** Its mOsmol/kg is 3590 mOsmol/kg.

**Q.** And the pH [16]?
**A.** Its pH is 6.98.

**Q.** And the “Measured Pirfenidone” value [17]?
**A.** The value was 38.9 mg/mL.

**Q.** And the mOsmol/kg [17]?
**A.** Its mOsmol/kg is 3750 mOsmol/kg.

**Q.** What about the pH [17] of the same compound?
**A.** The pH was 7.04.
